Test results from ChEMBL document CHEMBL1132522, “A new potent inhibitor of fungal melanin biosynthesis identified through combinatorial chemistry” (Bioorg Med Chem Lett, 1999).
pKi: −log10 of the molar value.

Assays:
Scytalone dehydratase = target: T1, Scytalone dehydratase (Magnaporthe oryzae (strain 70-15 / FGSC 8958) (Rice blast fungus)(Pyricularia oryzae), UniProt P56221); test: Inhibitory activity against Scytalone dehydratase; parameters: species or system Pyricularia grisea
T1 sequence (P56221 whole entry): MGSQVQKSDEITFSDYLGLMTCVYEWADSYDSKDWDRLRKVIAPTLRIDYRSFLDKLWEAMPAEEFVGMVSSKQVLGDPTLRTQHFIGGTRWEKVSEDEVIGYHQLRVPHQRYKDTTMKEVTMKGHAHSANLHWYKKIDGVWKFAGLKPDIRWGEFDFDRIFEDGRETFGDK

Oryza sp. = test: Compound was evaluated for protecting rice plants from infestation by blast upon foliar application.; assay type: functional

Structure (SMILES)	pKi (Scytalone dehydratase)	ED90 (Oryza sp.) [p.p.m.]
CC(CCc1ccccc1)NC(=O)C1(C(F)(F)F)CC(C)(Cl)C1 (configuration not stated)	8.07	
C[C@@H](NC(=O)C1(C(F)(F)F)CC(C)(Cl)C1)c1ccc(Br)cc1 (some centres not stated)	10.31	
CC(NC(=O)C1(C(F)(F)F)CC(C)(Cl)C1)c1ccc(Oc2ccccc2)cc1 (configuration not stated)	8.25	
C[C@H](COc1ccccc1F)NC(=O)C1(C(F)(F)F)CC(C)(Cl)C1 (some centres not stated)	9.11	
C[C@@H](NC(=O)[C@]1(C(F)(F)F)C[C@](C)(Cl)C1)c1ccc(Br)cc1 (stereo in doubt; 3a)	8.64	
C[C@@H](NC(=O)[C@]1(C(F)(F)F)C[C@](C)(Cl)C1)c1ccc(Br)cc1 (stereo in doubt; 3b)	10.59	40
